Assay results: patent US12077503B2, “Substituted cyclic amides and their use as herbicides” (FMC CORPORATION, priority 2015, dated 2024)

Key:
Assay type in all cases: in vivo
[1] = tested on: pigweed (Amaranthus retroflexus); experiment: Test C postemergence; details: scale 0 to 100, 0 no effect, 100 complete control
Text: (§1) Seeds of plant species selected from blackgrass (Alopecurus myosuroides), ryegrass, Italian (Italian ryegrass, Lolium multiflorum), wheat (winter wheat, Triticum aestivum), Galium (catchweed bedstraw, Galium aparine), corn (Zea mays), crabgrass, large (large crabgrass, Digitaria sanguinalis), foxtail, giant (giant foxtail, Setaria faberii), johnsongrass (Sorghum halepense), lambsquarters (Chenopodium album), morningglory (Ipomoea coccinea), nutsedge, yellow (yellow nutsedge, Cyperus esculentus), pigweed (Amaranthus retroflexus), ragweed (common ragweed, Ambrosia elatior), soybean (Glycine max), barnyardgrass (Echinochloa crus-galli), oilseed rape (Brassica napus), waterhemp (common waterhemp, Amaranthus rudis) and velvetleaf (Abutilon theophrasti) were planted into a blend of loam soil and sand and treated preemergence with test chemicals formulated in a non-phytotoxic solvent mixture which included a surfactant.
(§2) At the same time, plants selected from these crop and weed species and also Kochia (Kochia scoparia), oat, wild (wild oat, Avena fatua), and chickweed (common chickweed, Stellaria media) were planted in pots containing Sunshine Redi-Earth® planting medium comprising spaghnum peat moss, vermiculite, starter nutrients and dolomitic limestone and treated with postemergence applications of test chemicals formulated in the same manner. Plants ranged in height from 2 to 18 cm (1- to 4-leaf stage) for postemergence treatments. Treated plants and controls were maintained in a greenhouse for 13 to 15 d, after which time all species were compared to controls and visually evaluated. Plant response ratings, summarized in Table C, are based on a scale of 0 to 100 where 0 is no effect and 100 is complete control. A dash (-) response means no test result.

[2] = tested on: oilseed rape (Brassica napus); experiment: Test C postemergence; details: scale 0 to 100, 0 no effect, 100 complete control
Text: as §1, §2

[3] = tested on: ryegrass, Italian (Italian ryegrass, Lolium multiflorum); experiment: Test C postemergence; details: scale 0 to 100, 0 no effect, 100 complete control
Text: as §1, §2

[4] = tested on: johnsongrass (Sorghum halepense); experiment: Test C postemergence; details: scale 0 to 100, 0 no effect, 100 complete control
Text: as §1, §2

[5] = tested on: lambsquarters (Chenopodium album); experiment: Test C postemergence; details: scale 0 to 100, 0 no effect, 100 complete control
Text: as §1, §2

[6] = tested on: velvetleaf (Abutilon theophrasti); experiment: Test C postemergence; details: scale 0 to 100, 0 no effect, 100 complete control
Text: as §1, §2

corn (Zea mays) [7] = experiment: Test C postemergence; details: scale 0 to 100, 0 no effect, 100 complete control
Text: as §1, §2

[8] = tested on: oat, wild (wild oat, Avena fatua); experiment: Test C postemergence; details: scale 0 to 100, 0 no effect, 100 complete control
Text: as §1, §2

[9] = tested on: wheat (winter wheat, Triticum aestivum); experiment: Test C postemergence; details: scale 0 to 100, 0 no effect, 100 complete control
Text: as §1, §2

[10] = tested on: Galium (catchweed bedstraw, Galium aparine); experiment: Test C postemergence; details: scale 0 to 100, 0 no effect, 100 complete control
Text: as §1, §2

[11] = tested on: waterhemp (common waterhemp, Amaranthus rudis); experiment: Test C postemergence; details: scale 0 to 100, 0 no effect, 100 complete control
Text: as §1, §2

[12] = tested on: barnyardgrass (Echinochloa crus-galli); experiment: Test C postemergence; details: scale 0 to 100, 0 no effect, 100 complete control
Text: as §1, §2

soybean (Glycine max) = experiment: Test C postemergence; details: scale 0 to 100, 0 no effect, 100 complete control
Text: as §1, §2

[13] = tested on: blackgrass (Alopecurus myosuroides); experiment: Test C postemergence; details: scale 0 to 100, 0 no effect, 100 complete control
Text: as §1, §2

[14] = tested on: pigweed (Amaranthus retroflexus); experiment: Test C preemergence; details: for Plant response rating, Pigweed: scale 0 to 100, 0 no effect, 100 complete control
Summary of the method: (§3)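 Scores of 0 to 100 reflect visual comparison with control plants, where 0 means no effect and 100 complete control, made 13 to 15 d after treatment. Application was preemergence to seeds in loam-sand soil or postemergence to plants 2 to 18 cm tall in peat-based mix, using a surfactant-containing solvent formulation.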

[15] = tested on: morningglory (Ipomoea coccinea); experiment: Test C preemergence; details: for Plant response rating, Morningglory: scale 0 to 100, 0 no effect, 100 complete control
Summary of the method: as §3

[16] = tested on: ryegrass, Italian (Italian ryegrass, Lolium multiflorum); experiment: Test C preemergence; details: for Plant response rating, Ryegrass, Italian: scale 0 to 100, 0 no effect, 100 complete control
Summary of the method: as §3

corn (Zea mays) [17] = experiment: Test C preemergence; details: for Plant response rating, Corn: scale 0 to 100, 0 no effect, 100 complete control
Summary of the method: as §3

[18] = tested on: wheat (winter wheat, Triticum aestivum); experiment: Test C preemergence; details: for Plant response rating, Wheat: scale 0 to 100, 0 no effect, 100 complete control
Summary of the method: as §3

[19] = tested on: ragweed (common ragweed, Ambrosia elatior); experiment: Test C preemergence; details: for Plant response rating, Ragweed: scale 0 to 100, 0 no effect, 100 complete control
Summary of the method: as §3

[20] = tested on: barnyardgrass (Echinochloa crus-galli); experiment: Test C preemergence; details: for Plant response rating, Barnyardgrass: scale 0 to 100, 0 no effect, 100 complete control
Summary of the method: as §3

[21] = tested on: blackgrass (Alopecurus myosuroides); experiment: Test C preemergence; details: for Plant response rating, Blackgrass: scale 0 to 100, 0 no effect, 100 complete control
Summary of the method: as §3

[22] = 31 g ai/ha, 0 is no effect, 100 is complete control

With `CN1C[C@H](c2ccc(F)c(F)c2)[C@@H](C(=O)Nc2cccc(F)c2F)C1=O` [Compound 639, (3S,4S)—N-(2,3-difluorophenyl)-4-(3,4-difluorophenyl)-1-methyl-2-oxo-3-pyrrolidinecarboxamide] the “Plant response rating, Pigweed” value ([1]; 31 g ai/ha) was 10, the “Plant response rating, Pigweed” value ([1]; 62 g ai/ha) was 45 and the “Plant response rating, Pigweed” value ([1]; 125 g ai/ha) was 40. For the same compound, the “Plant response rating, Pigweed” value ([1]; 250 g ai/ha) was 45, the “Plant response rating, Oilseed Rape” value ([2]; 31 g ai/ha) was 30 and the “Plant response rating, Oilseed Rape” value ([2]; 62 g ai/ha) was 30. The “Plant response rating, Oilseed Rape” value ([2]; 125 g ai/ha) was 40, the “Plant response rating, Oilseed Rape” value ([2]; 250 g ai/ha) was 50 and the “Plant response rating, Ryegrass, Italian” value ([3]; 31 g ai/ha) was 0. For the same compound, the “Plant response rating, Ryegrass, Italian” value ([3]; 62 g ai/ha) was 0, the “Plant response rating, Ryegrass, Italian” value ([3]; 125 g ai/ha) was 5 and the “Plant response rating, Ryegrass, Italian” value ([3]; 250 g ai/ha) was 10. The “Plant response rating, Johnsongrass” value ([4]; 31 g ai/ha) was 0, the “Plant response rating, Johnsongrass” value ([4]; 62 g ai/ha) was 0 and the “Plant response rating, Johnsongrass” value ([4]; 125 g ai/ha) was 0. For the same compound, the “Plant response rating, Johnsongrass” value ([4]; 250 g ai/ha) was 0, the “Plant response rating, Lambsquarters” value ([5]; 31 g ai/ha) was 40 and the “Plant response rating, Lambsquarters” value ([5]; 62 g ai/ha) was 75. For the same compound, the “Plant response rating, Lambsquarters” value ([5]; 125 g ai/ha) was 65, the “Plant response rating, Lambsquarters” value ([5]; 250 g ai/ha) was 70 and the “Plant response rating, Velvetleaf” value ([6]; 31 g ai/ha) was 35. The “Plant response rating, Velvetleaf” value ([6]; 62 g ai/ha) was 60, the “Plant response rating, Velvetleaf” value ([6]; 125 g ai/ha) was 50 and the “Plant response rating, Velvetleaf” value ([6]; 250 g ai/ha) was 60. The “Plant response rating, Corn” value (corn (Zea mays) [7]; 31 g ai/ha) was 0, the “Plant response rating, Corn” value (corn (Zea mays) [7]; 62 g ai/ha) was 0 and the “Plant response rating, Corn” value (corn (Zea mays) [7]; 125 g ai/ha) was 0. For the same compound, the “Plant response rating, Corn” value (corn (Zea mays) [7]; 250 g ai/ha) was 35, the “Plant response rating, Oat, Wild” value ([8]; 31 g ai/ha) was 0 and the “Plant response rating, Oat, Wild” value ([8]; 62 g ai/ha) was 0. The “Plant response rating, Oat, Wild” value ([8]; 125 g ai/ha) was 0, the “Plant response rating, Oat, Wild” value ([8]; 250 g ai/ha) was 0 and the “Plant response rating, Wheat” value ([9]; 31 g ai/ha) was 0. The “Plant response rating, Wheat” value ([9]; 62 g ai/ha) was 0, the “Plant response rating, Wheat” value ([9]; 125 g ai/ha) was 0 and the “Plant response rating, Wheat” value ([9]; 250 g ai/ha) was 0. The “Plant response rating, Galium” value ([10]; 31 g ai/ha) was 50, the “Plant response rating, Galium” value ([10]; 62 g ai/ha) was 50 and the “Plant response rating, Galium” value ([10]; 125 g ai/ha) was 70. The “Plant response rating, Galium” value ([10]; 250 g ai/ha) was 70, the “Plant response rating, Waterhemp” value ([11]; 31 g ai/ha) was 10 and the “Plant response rating, Waterhemp” value ([11]; 62 g ai/ha) was 25. For the same compound, the “Plant response rating, Waterhemp” value ([11]; 125 g ai/ha) was 30, the “Plant response rating, Waterhemp” value ([11]; 250 g ai/ha) was 25 and the “Plant response rating, Barnyardgrass” value ([12]; 31 g ai/ha) was 20. For the same compound, the “Plant response rating, Barnyardgrass” value ([12]; 62 g ai/ha) was 40, the “Plant response rating, Barnyardgrass” value ([12]; 125 g ai/ha) was 70 and the “Plant response rating, Barnyardgrass” value ([12]; 250 g ai/ha) was 85. For the same compound, the “Plant response rating, Soybean” value (soybean (Glycine max); 31 g ai/ha) was 0, the “Plant response rating, Soybean” value (soybean (Glycine max); 62 g ai/ha) was 10 and the “Plant response rating, Soybean” value (soybean (Glycine max); 125 g ai/ha) was 15. For the same compound, the “Plant response rating, Soybean” value (soybean (Glycine max); 250 g ai/ha) was 25, the “Plant response rating, Blackgrass” value ([13]; 31 g ai/ha) was 0 and the “Plant response rating, Blackgrass” value ([13]; 62 g ai/ha) was 0. The “Plant response rating, Blackgrass” value ([13]; 125 g ai/ha) was 5, the “Plant response rating, Blackgrass” value ([13]; 250 g ai/ha) was 10 and the “Plant response rating (scale of 0 to 100), Pigweed” value [14, 22] was 40. For the same compound, the “Plant response rating, Pigweed” value ([14]; 62 g ai/ha) was 55, the “Plant response rating, Pigweed” value ([14]; 125 g ai/ha) was 65 and the “Plant response rating, Pigweed” value ([14]; 250 g ai/ha) was 75. The “Plant response rating (scale of 0 to 100), Morningglory” value [15, 22] was 20, the “Plant response rating, Morningglory” value ([15]; 62 g ai/ha) was 10 and the “Plant response rating, Morningglory” value ([15]; 125 g ai/ha) was 35. The “Plant response rating, Morningglory” value ([15]; 250 g ai/ha) was 40, the “Plant response rating (scale of 0 to 100), Ryegrass, Italian” value [16, 22] was 25 and the “Plant response rating, Ryegrass, Italian” value ([16]; 62 g ai/ha) was 60. The “Plant response rating, Ryegrass, Italian” value ([16]; 125 g ai/ha) was 60, the “Plant response rating, Ryegrass, Italian” value ([16]; 250 g ai/ha) was 70 and the “Plant response rating (scale of 0 to 100), Corn” value (corn (Zea mays) [17]; [22]) was 5. For the same compound, the “Plant response rating, Corn” value (corn (Zea mays) [17]; 62 g ai/ha) was 40, the “Plant response rating, Corn” value (corn (Zea mays) [17]; 125 g ai/ha) was 80 and the “Plant response rating, Corn” value (corn (Zea mays) [17]; 250 g ai/ha) was 85. For the same compound, the “Plant response rating (scale of 0 to 100), Wheat” value [18, 22] was 0, the “Plant response rating, Wheat” value ([18]; 62 g ai/ha) was 65 and the “Plant response rating, Wheat” value ([18]; 125 g ai/ha) was 80. For the same compound, the “Plant response rating, Wheat” value ([18]; 250 g ai/ha) was 85, the “Plant response rating (scale of 0 to 100), Ragweed” value [19, 22] was 5 and the “Plant response rating, Ragweed” value ([19]; 62 g ai/ha) was 60. The “Plant response rating, Ragweed” value ([19]; 125 g ai/ha) was 75, the “Plant response rating, Ragweed” value ([19]; 250 g ai/ha) was 80 and the “Plant response rating (scale of 0 to 100), Barnyardgrass” value [20, 22] was 90. The “Plant response rating, Barnyardgrass” value ([20]; 62 g ai/ha) was 95, the “Plant response rating, Barnyardgrass” value ([20]; 125 g ai/ha) was 95 and the “Plant response rating, Barnyardgrass” value ([20]; 250 g ai/ha) was 100. For the same compound, the “Plant response rating (scale of 0 to 100), Blackgrass” value [21, 22] was 40, the “Plant response rating, Blackgrass” value ([21]; 62 g ai/ha) was 85 and the “Plant response rating, Blackgrass” value ([21]; 125 g ai/ha) was 85. The “Plant response rating, Blackgrass” value ([21]; 250 g ai/ha) was 90.
